Results reported in PubChem BioAssay AID256 (DTP/NCI, 2004).
Toxic doses and inconclusive results are not listed. The calls were made as follows: active = survival T/C of 150% or more; inactive = T/C below 125% in these data.

System: CD2F1 mice, L1210 leukemia ip, survival T/C
Experiment: NCI In Vivo Anticancer Drug Screen. Data for tumor model L1210 Leukemia (intraperitoneal) in CD2F1 (CDF1) mice
Settings: endpoint: mean survival time, higher = longer survival
Outline: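 Antitumor effect is scored in animals hosting a serially transplanted tumor. Values compare compound-dosed animals against vehicle-only controls as a simple quotient.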

[1] = dose: 50.0 mg/kg/injection, schedule: Q01DX009 (ip), vehicle: saline with Tween-80
[2] = dose: 100.0 mg/kg/injection, schedule: Q01DX009 (ip), vehicle: saline with Tween-80
[3] = dose: 200.0 mg/kg/injection, schedule: Q01DX009 (ip), vehicle: saline with Tween-80
[4] = dose: 100.0 mg/kg/injection, schedule: Q04DX003 (ip), vehicle: saline with Tween-80
[5] = dose: 200.0 mg/kg/injection, schedule: Q04DX003 (ip), vehicle: saline with Tween-80
[6] = dose: 400.0 mg/kg/injection, schedule: Q01DX009 (ip), vehicle: saline with Tween-80
[7] = dose: 400.0 mg/kg/injection, schedule: Q04DX003 (ip), vehicle: saline with Tween-80
[8] = dose: 100.0 mg/kg/injection, schedule: Q01DX009 (ip), vehicle: saline
[9] = dose: 200.0 mg/kg/injection, schedule: Q01DX009 (ip), vehicle: saline

Measured: T/C

OCC1OC(n2c(SCc3ccccc3)nc3ccccc32)C(O)C1O (stereo unspecified)
inactive: dose: 100.0 mg/kg/injection, schedule: Q01DX001 (ip), vehicle: saline 102 % of control | dose: 200.0 mg/kg/injection, schedule: Q01DX001 (ip), vehicle: saline 102 % of control | dose: 400.0 mg/kg/injection, schedule: Q01DX001 (ip), vehicle: saline 97 % of control

O=C(Nc1c(Cl)cccc1Cl)OCCOc1ccccc1Cl
inactive: [1] 98 % of control | [2] 98 % of control | [3] 98 % of control

COCCNC1=C(C)C(=O)C2=C(C1=O)[C@H](COC(N)=O)[C@]1(OC)[C@@H]3N[C@@H]3CN21
inactive: dose: 3.0 mg/kg/injection, schedule: Q01DX001 (ip), vehicle: distilled water + Tween-80 114 % of control | dose: 24.0 mg/kg/injection, schedule: Q01DX001 (ip), vehicle: distilled water + Tween-80 123 % of control

C/C=C/CC1CCCCC1C (stereo unspecified)
inactive: [1] 96 % of control | [2] 96 % of control | [3] 108 % of control

O=C(Nc1cc(Cl)ccc1Cl)c1ccc(C(=O)Nc2cc(Cl)ccc2Cl)cc1
inactive: [2] 94 % of control | [4] 92 % of control | [3] 95 % of control | [5] 96 % of control | [6] 94 % of control | [7] 88 % of control

O=C1CCC(=O)N1N1C(=O)CCC1=O
inactive: dose: 100.0 mg/kg/injection, schedule: Q01DX001 (ip), vehicle: Klucel (hydroxypropylcellulose) (HPC) 101 % of control | dose: 200.0 mg/kg/injection, schedule: Q01DX001 (ip), vehicle: Klucel (hydroxypropylcellulose) (HPC) 96 % of control | dose: 400.0 mg/kg/injection, schedule: Q01DX001 (ip), vehicle: Klucel (hydroxypropylcellulose) (HPC) 96 % of control

C=C(Cl)CN(CC)CCO
inactive: [2] 103 % of control

O=C([O-])CC[n+]1ccn(CCC(=O)O)c1
inactive: dose: 100.0 mg/kg/injection, schedule: Q04DX003 (ip), vehicle: saline 109 % of control | dose: 200.0 mg/kg/injection, schedule: Q04DX003 (ip), vehicle: saline 103 % of control | dose: 400.0 mg/kg/injection, schedule: Q04DX003 (ip), vehicle: saline 111 % of control

CN(CCC#N)C1=CCCC1
inactive: [8] 102 % of control | [9] 112 % of control | dose: 400.0 mg/kg/injection, schedule: Q01DX009 (ip), vehicle: saline 105 % of control

CN(C)CC1CCCCN1 (stereo unspecified)
inactive: dose: 50.0 mg/kg/injection, schedule: Q01DX009 (ip), vehicle: saline 94 % of control | [8] 94 % of control | [9] 94 % of control

Cc1cccc(NC2=NCCO2)c1
inactive: dose: 100.0 mg/kg/injection, schedule: Q01DX001 (ip), vehicle: saline with Tween-80 104 % of control | dose: 200.0 mg/kg/injection, schedule: Q01DX001 (ip), vehicle: saline with Tween-80 103 % of control

OB(O)Oc1ccc(Br)cc1
inactive: dose: 50.0 mg/kg/injection, schedule: Q01DX009 (ip), vehicle: other 95 % of control | dose: 100.0 mg/kg/injection, schedule: Q01DX009 (ip), vehicle: other 91 % of control | dose: 200.0 mg/kg/injection, schedule: Q01DX009 (ip), vehicle: other 102 % of control

C[S+](C)CC(=O)c1ccccc1O
inactive: [4] 103 % of control | [5] 99 % of control | [7] 100 % of control

Cc1ccc(NC(=O)c2cccc(Cl)c2)c(C)c1
inactive: [2] 100 % of control | [4] 96 % of control | [3] 94 % of control | [5] 100 % of control | [6] 96 % of control | [7] 93 % of control

CC1(C)N=C(N)N=C(N)N1c1ccc(C(=O)c2ccccc2)cc1
inactive: [4] 91 % of control

COc1ccc(-c2nc3cc(Cl)ccc3c(=O)o2)cc1
inactive: [4] 88 % of control | [5] 91 % of control | [7] 88 % of control

OCCNC(=S)SCc1ccccc1
inactive: [4] 94 % of control | [5] 100 % of control | [7] 98 % of control
